Laboratory results from publication PMC9929129, “Towards Translation of PqsR Inverse Agonists: From In Vitro Efficacy Optimization to In Vivo Proof‐of‐Principle” (Advanced Science, 2023).
Converted amounts (≈) assume the structure as drawn. “Also recorded” adds a separate entry of the source.

Columns and labels:
[1] = Metabolic stability in mouse liver microsomes (MLM)
Protocol: 1.3.2 Metabolic-Stability Tests in Mouse Liver Microsomes (MLM).
Phase I metabolic stability was evaluated by incubating the compound (1 μM) with 0.5 mg/mL MLM (Corning) and 1 mM NADPH at 37 °C for 0, 5, 10, 15 and 30 min. The enzymatic activity of the MLM was determined by measuring the metabolic stability of Verapamil, Diphenhydramine and Benzydamine (1 μM each).
The half-life (t1/2) was determined by analyzing the concentrations of the compounds at the different time points by HPLC-MS/MS.

ENaC channel = biological target: T1, ENaC channel (Homo sapiens, UniProt P37088+P51168+P51170); assay: Ion channel profiling at Charles River: ENaC; assay type: cell-based
T1 construct: host or cells: HEK293 cells
T1 sequence (P51170 whole entry): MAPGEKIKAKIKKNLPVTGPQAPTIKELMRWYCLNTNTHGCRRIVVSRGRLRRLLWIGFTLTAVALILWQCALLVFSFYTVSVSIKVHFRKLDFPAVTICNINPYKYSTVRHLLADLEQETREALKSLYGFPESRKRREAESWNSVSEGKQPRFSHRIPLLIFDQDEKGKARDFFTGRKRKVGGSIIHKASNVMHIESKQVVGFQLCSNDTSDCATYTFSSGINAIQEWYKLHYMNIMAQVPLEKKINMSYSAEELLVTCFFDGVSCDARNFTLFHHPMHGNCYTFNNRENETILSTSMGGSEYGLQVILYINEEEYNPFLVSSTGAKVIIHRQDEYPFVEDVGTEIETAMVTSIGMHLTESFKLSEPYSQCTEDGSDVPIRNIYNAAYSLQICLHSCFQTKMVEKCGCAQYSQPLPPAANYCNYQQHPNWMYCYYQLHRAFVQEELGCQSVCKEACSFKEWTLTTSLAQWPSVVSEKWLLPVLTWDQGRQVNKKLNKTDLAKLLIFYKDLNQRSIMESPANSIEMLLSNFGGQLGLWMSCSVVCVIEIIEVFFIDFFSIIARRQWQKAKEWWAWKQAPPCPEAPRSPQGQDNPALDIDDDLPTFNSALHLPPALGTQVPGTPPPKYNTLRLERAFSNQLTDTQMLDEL
T1 sequence (P37088 whole entry): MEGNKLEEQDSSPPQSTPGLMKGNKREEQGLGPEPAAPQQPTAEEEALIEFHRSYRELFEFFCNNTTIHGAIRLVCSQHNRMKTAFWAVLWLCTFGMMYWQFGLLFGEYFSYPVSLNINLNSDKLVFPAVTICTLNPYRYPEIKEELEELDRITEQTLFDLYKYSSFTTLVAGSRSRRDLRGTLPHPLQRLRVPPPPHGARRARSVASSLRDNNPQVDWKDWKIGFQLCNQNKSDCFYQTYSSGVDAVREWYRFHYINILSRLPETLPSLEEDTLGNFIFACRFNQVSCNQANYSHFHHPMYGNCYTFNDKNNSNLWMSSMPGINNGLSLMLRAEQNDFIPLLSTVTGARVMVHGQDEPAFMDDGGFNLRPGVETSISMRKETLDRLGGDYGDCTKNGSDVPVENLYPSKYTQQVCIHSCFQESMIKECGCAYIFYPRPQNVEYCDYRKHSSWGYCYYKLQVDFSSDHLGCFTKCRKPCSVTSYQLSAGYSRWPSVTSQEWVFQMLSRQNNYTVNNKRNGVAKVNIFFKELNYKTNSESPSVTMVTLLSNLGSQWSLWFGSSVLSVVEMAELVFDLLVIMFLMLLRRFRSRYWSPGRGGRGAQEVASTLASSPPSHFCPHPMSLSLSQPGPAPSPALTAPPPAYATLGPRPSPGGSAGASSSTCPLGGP
T1 sequence (P51168 whole entry): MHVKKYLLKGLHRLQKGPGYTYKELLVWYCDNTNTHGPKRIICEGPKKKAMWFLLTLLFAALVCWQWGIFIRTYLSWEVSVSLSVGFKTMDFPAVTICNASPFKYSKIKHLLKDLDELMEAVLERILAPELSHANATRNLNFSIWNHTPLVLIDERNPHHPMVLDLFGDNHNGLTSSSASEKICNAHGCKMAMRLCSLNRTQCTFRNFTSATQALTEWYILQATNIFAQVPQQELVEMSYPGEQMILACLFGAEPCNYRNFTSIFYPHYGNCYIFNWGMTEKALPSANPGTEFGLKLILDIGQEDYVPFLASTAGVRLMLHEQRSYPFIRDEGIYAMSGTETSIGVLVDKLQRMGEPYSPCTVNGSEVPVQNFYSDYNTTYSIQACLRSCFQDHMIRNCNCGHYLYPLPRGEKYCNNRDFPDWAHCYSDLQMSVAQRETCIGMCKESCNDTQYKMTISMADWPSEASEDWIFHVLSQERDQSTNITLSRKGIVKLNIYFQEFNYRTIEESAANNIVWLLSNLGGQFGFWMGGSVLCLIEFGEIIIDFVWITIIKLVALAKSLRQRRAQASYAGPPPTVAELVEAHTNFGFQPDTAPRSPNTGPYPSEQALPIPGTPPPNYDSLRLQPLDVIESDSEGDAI
Protocol: (§1) 1.4.3 Ion Channel Profiling at Charles River
Table S9. Compound 24 was tested against the following ion channels at Charles River Laboratories.
ASSAY TYPE ION CHANNEL AND EXPRESSION SYSTEM ESTIMATED […]
ScreenPatch Assay Kv1.3 potassium channel (human KCNA3 gene) expressed in CHO
ENaC channel (human SCNN1A, SCNN1B and SCNN1G genes, >30
(§2) FLIPR Assay expressed in HEK293 cells
GABAA α5/β3/γ2 ionotropic receptor (human GABRA5, GABRB3, >30
and GABRG2 genes, expressed in HEK293 cells

[2] = system: Pseudomonas aeruginosa PA14; assay: Pyocyanin assay in Pseudomonas aeruginosa; assay type: cell-based; settings: PA14, 16 h, read-out: IC50 Pyocyanin
Protocol: 1.2.2 Pyocyanin assay in Pseudomonas aeruginosa
Inhibition of pyocyanin biosynthesis of compounds was measured spectrophotometrically as previously described.[2] Pseudomonas aeruginosa PA14 was grown in rich medium for 16 h under agitation with and without compound. Pyocyanin was extracted from cultures with chloroform, then re-extracted with 0.2 M HCl and quantified photometrically (520 nm). IC50 values were determined from dose-response curves of compounds using at least six different concentrations and fitting with non-linear regression analysis (OriginPro 2017–2020, Originlab Corporation). […]

CYP2C9 = biological target: T2, CYP2C9 (Homo sapiens, UniProt P11712); assay: Cytochrome P450 inhibition assay, CYP2C9; assay type: in vitro ADME; settings: Metabolic activity
T2 construct: Cyprotex
T2 sequence (P11712 whole entry): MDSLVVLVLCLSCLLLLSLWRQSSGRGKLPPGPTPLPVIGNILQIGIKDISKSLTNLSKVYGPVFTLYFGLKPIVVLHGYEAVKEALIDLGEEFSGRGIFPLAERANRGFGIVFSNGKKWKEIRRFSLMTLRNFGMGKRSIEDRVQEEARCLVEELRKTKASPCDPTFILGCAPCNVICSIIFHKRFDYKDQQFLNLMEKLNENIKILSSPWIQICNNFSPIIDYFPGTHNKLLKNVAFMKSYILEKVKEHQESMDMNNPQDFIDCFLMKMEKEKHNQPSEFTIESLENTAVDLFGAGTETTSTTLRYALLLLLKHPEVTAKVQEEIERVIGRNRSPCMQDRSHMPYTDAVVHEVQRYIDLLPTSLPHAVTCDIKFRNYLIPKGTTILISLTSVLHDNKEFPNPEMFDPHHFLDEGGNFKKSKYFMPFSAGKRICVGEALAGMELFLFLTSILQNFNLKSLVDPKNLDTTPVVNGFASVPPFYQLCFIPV
Protocol: 1.4.4 Pharmacokinetic and off-target functional assays (Cyprotex)
Compound 24 was assayed at Cyprotex in functional assays for interference with important off-targets as well as important pharmacokinetic parameters. With the exception of plasma protein binding, a dose-response relationship was studied in order to calculate IC50 values.
Table S10. Information on in vitro ADMET assays performed at Cyprotex. […]
(§3) An increase in the number of colonies of at least two-fold over baseline (mean + SD of the vehicle control) and a dose response indicate a positive response. An […]
(§4) different from the vehicle control.
(§5) Where indicated, S9 fraction from the livers of Aroclor 1254-treated rats were included in the incubation at a final concentration of 4.5%. A NADPH-regenerating system was also included to ensure a steady supply of reducing equivalents.

P2X4 receptor = biological target: T3, P2X4 receptor (Homo sapiens, UniProt Q99571); assay: Ion channel profiling at Charles River: P2X4; assay type: cell-based; settings: expressed in HEK293 cells; read-out: ESTIMATED IC50
T3 construct: host or cells: HEK293 cells
T3 sequence (Q99571 whole entry): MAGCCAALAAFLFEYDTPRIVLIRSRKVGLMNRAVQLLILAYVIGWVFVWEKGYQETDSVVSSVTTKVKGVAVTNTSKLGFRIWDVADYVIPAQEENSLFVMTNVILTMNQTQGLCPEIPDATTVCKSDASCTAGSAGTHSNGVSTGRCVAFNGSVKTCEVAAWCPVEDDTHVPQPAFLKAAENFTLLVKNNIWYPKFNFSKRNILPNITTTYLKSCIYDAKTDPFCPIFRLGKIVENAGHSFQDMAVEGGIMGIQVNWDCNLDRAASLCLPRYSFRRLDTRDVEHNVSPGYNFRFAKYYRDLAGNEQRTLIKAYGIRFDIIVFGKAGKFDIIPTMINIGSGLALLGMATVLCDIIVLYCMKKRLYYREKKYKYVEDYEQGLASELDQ
Protocol: as §1
Table S9. Compound 24 was tested against the following ion channels at Charles River Laboratories. […]
as §2
GABAA α5/β3/γ2 ionotropic receptor (human GABRA5, GABRB3, >30 and GABRG2 genes, expressed in HEK293 cells
P2X4 receptor (human P2RX4 gene) expressed in HEK293 cells >30 […]
as §3, §4, §5

[3] = Kinetic turbidimetric aqueous solubility; settings: PBS buffer, kinetic from dmso stock
P. aeruginosa PAO1 = assay: Biofilm-eradication assay with amikacin; assay type: cell-based, Pseudomonas aeruginosa; settings: 10 × 10^−6 M 24 plus 4 µg/mL amikacin
Protocol: compound, 150 µL 1% DMSO in LB. The inoculator was wrapped with parafilm again and incubated for another 24 h. After that, the peg lid was transferred for 1 min to a 96-well plate containing 200 µL sterile MΩ in each well, followed by another 96 well plate containing 200 µL LB in each well. The system was sealed with parafilm and sonicated for 15 min in an ultrasonic bath with tray.
Immediately after sonication, 20 µL were removed from each well using a multi-channel pipette and diluted 1:10 (stepwise, until 10-6). After each dilution step, 10 µL were directly transferred to cetrimide agar plates (spot plating) using fresh pipette tips. Agar plates were incubated for 16 h at 37 °C and then used for cell counting. Statistical analysis was performed with GraphPad Prism 8.4.1 (GraphPad Software, San Diego, CA) using one-way ANOVA with Tukey’s multiple comparisons test.
Statistical outliers were determined using the Nalimov test, applying a 95% cut-off.
1.2.5 Biofilm-eradication assay
The assay was carried out as described in section 1.2.4, with the following modifications: In the first incubation step only QSI or DMSO (DMSO control and tobramycin control) were added to the wells at time 0. The well plate used for the second incubation step contained QSI/DMSO as before, in presence/absence of tobramycin/amikacin. […]

[4] = system: Bronchiectasis clinical isolates, PA14 and PAO1; assay: Antimicrobial minimal inhibitory concentrations (MIC), microdilution; settings: Pseudomonas aeruginosa

Question: What does the source list for `CC(C)Oc1ccc(-c2ncc(CNc3ccnc(C(F)(F)F)c3)cn2)cc1Cl` [Compound 24]?
Answer: half-life at 1 μM [1]: 19 min; IC50 (ENaC channel): > 30 µM; IC50 [2]: 0.245 ± 0.04 µM; IC50 (CYP2C9): > 25 µM; IC50 (P2X4 receptor): > 30 µM; solubility kinetic at 5 min [3]: 47.2 µM (≈ 20 µg/mL); Effect on amikacin activity against PAO1 biofilm (P. aeruginosa PAO1): significant boost in activity; also recorded: boosted

Question: Which MIC ([4]; PA14|PAO1, strain column 1 of 16 (strain heads not assignable)) does the source give for `NC[C@H]1O[C@H](O[C@H]2[C@H](O)[C@@H](O[C@H]3O[C@H](CO)[C@@H](O)[C@H](N)[C@H]3O)[C@H](N)C[C@@H]2N)[C@H](N)C[C@@H]1O` [Tobramycin, tobramycin] here?
Answer: 1 µg/mL (≈ 2.14 µM)

Question: What about the MIC ([4]; strain column 2 of 16) of the same compound?
Answer: 1 µg/mL (≈ 2.14 µM)

Question: What about the MIC ([4]; strain column 3 of 16) of the same compound?
Answer: ≤ 0.5 µg/mL

Question: And the MIC ([4]; strain column 4 of 16)?
Answer: ≤ 0.5 µg/mL

Question: And the MIC ([4]; strain column 5 of 16)?
Answer: ≤ 0.5 µg/mL

Question: What about the MIC ([4]; strain column 6 of 16) of the same compound?
Answer: ≤ 0.5 µg/mL

Question: And the MIC ([4]; strain column 7 of 16)?
Answer: ≤ 0.5 µg/mL

Question: What about the MIC ([4]; strain column 8 of 16) of the same compound?
Answer: 2 µg/mL (≈ 4.28 µM)

Question: What about the MIC ([4]; strain column 9 of 16) of the same compound?
Answer: 1 µg/mL (≈ 2.14 µM)

Question: And the MIC ([4]; strain column 10 of 16)?
Answer: ≤ 0.5 µg/mL

Question: What about the MIC ([4]; strain column 11 of 16) of the same compound?
Answer: ≤ 0.5 µg/mL

Question: What about the MIC ([4]; strain column 12 of 16) of the same compound?
Answer: ≤ 0.5 µg/mL

Question: What about the MIC ([4]; strain column 13 of 16) of the same compound?
Answer: ≤ 0.5 µg/mL

Question: What about the MIC ([4]; strain column 14 of 16) of the same compound?
Answer: ≤ 0.5 µg/mL

Question: And the MIC ([4]; strain column 15 of 16)?
Answer: ≤ 0.5 µg/mL

Question: And the MIC ([4]; strain column 16 of 16)?
Answer: ≤ 0.5 µg/mL
